Experiments:
RIPK1 kinase = molecular target: T1, RIPK1 kinase (Homo sapiens, UniProt Q13546); assay: In vitro RIPK1 kinase activity assay (ADP-Glo), inhibition by compounds at 1 μM; type: biochemical; conditions: compound 1 μM; ATP 10 μM; MBP substrate 100 μg/mL; read-out: RIPK1 kinase activity inhibition rate range
T1 construct: purchased Promega VA7593
T1 sequence (Q13546 1-671): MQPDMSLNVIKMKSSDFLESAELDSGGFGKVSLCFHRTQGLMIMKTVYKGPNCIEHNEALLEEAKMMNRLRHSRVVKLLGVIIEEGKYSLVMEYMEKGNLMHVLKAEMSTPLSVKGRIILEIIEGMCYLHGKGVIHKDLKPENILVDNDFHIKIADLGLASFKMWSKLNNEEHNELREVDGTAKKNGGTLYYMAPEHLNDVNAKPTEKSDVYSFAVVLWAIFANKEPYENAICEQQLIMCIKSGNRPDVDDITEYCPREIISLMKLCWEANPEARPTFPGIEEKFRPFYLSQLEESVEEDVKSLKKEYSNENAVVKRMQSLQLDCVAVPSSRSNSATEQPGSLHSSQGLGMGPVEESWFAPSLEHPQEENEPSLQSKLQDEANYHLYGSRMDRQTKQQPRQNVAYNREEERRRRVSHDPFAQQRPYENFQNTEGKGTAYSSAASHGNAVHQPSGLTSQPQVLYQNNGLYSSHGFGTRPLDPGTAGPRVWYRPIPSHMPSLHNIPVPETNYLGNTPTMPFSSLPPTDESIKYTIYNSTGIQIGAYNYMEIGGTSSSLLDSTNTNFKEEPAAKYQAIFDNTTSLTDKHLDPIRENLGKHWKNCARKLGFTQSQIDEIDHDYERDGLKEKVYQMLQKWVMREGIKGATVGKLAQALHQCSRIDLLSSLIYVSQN
Outline: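 Read by ADP-Glo chemiluminescence as percent inhibition: RIPK1 kinase, 15-min room-temperature compound preincubation, then 1-h reaction with MBP (100 μg/mL final) and ATP (10 μM final). Enzyme level was set by titration.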

U937 cells [1] = assay: Inhibition rate of compound (1 μM) on necroptosis of U937 cells (TSZ-induced, CellTiter-Glo); type: cell-based; conditions: TSZ (hTNF-α, SM-164, Z-VAD-FMK) 20 hours
Outline: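 Percent inhibition comes from ATP luminescence (CellTiter-Glo), referenced to wells without TSZ and wells with TSZ alone. The compound was added to U937 cells 15 min ahead of a TNF-α/SM-164/Z-VAD-FMK mix, followed by 20 h culture at 37° C, 5% CO2.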

U937 cells [2] = assay: EC50 of necroptosis inhibition in U937 cells (TSZ-induced, CellTiter-Glo); type: cell-based; conditions: Homo sapiens, U-937; TSZ (hTNF-α, SM-164, Z-VAD-FMK) 20 hours; 10 concentration points; read-out: EC50 intervals of necroptosis inhibition in U937 cells
Outline: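 Luminescent ATP readout (CellTiter-Glo) after 20 h gave viability of TSZ-challenged U937 cells; compounds were added 15 min ahead of TNF-α/SM-164/Z-VAD-FMK. EC50 derived by variable-slope nonlinear regression of inhibition relative to no-TSZ and TSZ-alone controls.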

SMILES | inhibition at 1 µM (RIPK1 kinase) [%] | Inhibition rate range of compounds (1 μM) on U937 cell necroptosis (U937 cells [1]) | EC50 (U937 cells [2]) [µM]
C=CC(=O)N1CC(C#Cc2ccc3c(c2)N(C)C(=O)[C@@H](NC(=O)C(=O)N[C@H](C)c2ccccc2)CO3)C1 [Example 149, N^1-((S)-7-((1-acryloylazetidin-3-yl)ethynyl)-5-methyl-4-oxo-2,3,4,5-tetrahydrobenzo[b][1,4]oxazepin-3-yl)-N^2-((R)-1-phenylethyl)oxalamide] | ≥ 75 | A (A: ≥90%) | < 0.1
C[C@@H](NC(=O)C(=O)N[C@H]1COc2ccc(C#CC3CN(N=O)C3)cc2N(C)C1=O)c1ccccc1 [Example 151, N^1-((S)-5-methyl-7-((1-nitrosoazetidin-3-yl)ethynyl)-4-oxo-2,3,4,5-tetrahydrobenzo[b][1,4]oxazepin-3-yl)-N^2-((R)-1-phenylethyl)oxalamide] | 25 to 49 | A (A: ≥90%) | < 0.1
C[C@@H](Cc1ccccc1)NC(=O)C(=O)N[C@H]1COc2ccc(C#CCCO)cc2N(C)C1=O [Example 152, N^1-((S)-7-(4-hydroxybut-1-yn-1-yl)-5-methyl-4-oxo-2,3,4,5-tetrahydrobenzo[b][1,4]oxazepin-3-yl)-N^2-((S)-1-phenylpropan-2-yl)oxalamide] | 50 to 74 | A (A: ≥90%) | 0.1 to 0.5
C[C@H](Cc1ccccc1)NC(=O)C(=O)N[C@H]1COc2ccc(C#CCCO)cc2N(C)C1=O [Example 153, N^1-((S)-7-(4-hydroxybut-1-yn-1-yl)-5-methyl-4-oxo-2,3,4,5-tetrahydrobenzo[b][1,4]oxazepin-3-yl)-N^2-((R)-1-phenylpropan-2-yl)oxalamide] | 50 to 74 | A (A: ≥90%) | 0.1 to 0.5
CN1C(=O)[C@@H](NC(=O)C(=O)NC(C)(C)c2ccccc2)COc2ccc(C#CCN3CCOCC3)cc21 [Example 160, (S)—N^1-(5-methyl-7-(3-morpholinoprop-1-yn-1-yl)-4-oxo-2,3,4,5-tetrahydrobenzo[b][1,4]oxazepin-3-yl)-N^2-(2-phenylpropan-2-yl)oxalamide] | ≥ 75 | A (A: ≥90%) | < 0.1
C[C@@H](NC(=O)C(=O)N[C@H]1COc2ccc(C#CC[N+]3([O-])CCOCC3)cc2N(C)C1=O)c1ccccc1 [Example 161, 4-(3-((S)-5-methyl-4-oxo-3-(2-oxo-2-(((R)-1-phenylethyl)amino)acetamido)-2,3,4,5-tetrahydrobenzo[b][1,4]oxazepin-7-yl)prop-2-yn-1-yl) morpholine 4-oxide] | 50 to 74 | A (A: ≥90%) | < 0.1
Cc1ncsc1-c1ccc(CNC(=O)[C@@H]2C[C@@H](O)CN2C(=O)[C@@H](NC(=O)COCCOCCN2CCN(CC#Cc3ccc4c(c3)N(C)C(=O)[C@@H](NC(=O)C(=O)N[C@H](C)c3ccccc3)CO4)CC2)C(C)(C)C)cc1 [Example 162, N^1-((S)-7-(3-(4-(2-(2-(2-(((S)-1-((2S,4R)-4-hydroxy-2-((4-(4-methylthiazol-5-yl)benzyl)carbamoyl)pyrrolidin-1-yl)-3,3-dimethyl-1-oxobutan-2-yl)amino)-2-oxoethoxy)ethoxy)ethyl)piperazin-1-yl)prop-1-yn-1-yl)-5-methyl-4-oxo-2,3,4,5-tetrahydrobenzo[b][1,4]oxazepin-3-yl)-N^2-((R)-1-phenylethyl)oxalamide] | ≥ 75 | A (A: ≥90%) | 0.1 to 0.5
